Measurements reported in patent US20120295920A1, “5-AMINO-4-HYDROXYPENTOYL AMIDES” (priority 2009, published 2012).
pEC50: −log10 of the molar value. Read-outs that look alike come from different tables or passages of the source.

What was measured:
[1] = tested on: HIV-1 wild-type strain; assay: General antiviral assay, cell-based virus replication in MT4-LTR-EGFP cells, wild-type strain; details: wild-type strain IIIB, MT4-LTR-EGFP cells
Description: (§1) MT4-LTR-EGFP cells were obtained by transfecting MT4 cells with a selectable construct encompassing the sequences coding for the HIV long terminal repeat (LTR) as a promoter for the expression of enhanced green fluorescent protein (EGFP) and subsequent selection of permanently transfected cells.
(§2) The antiviral activity on different HIV-1 strains, was determined in a cell-based virus replication assay. Here MT4-LTR-EGFP cells (150,000 cells/ml) are infected (multiplicity of infection [MOI] of 0.0025) in the presence or absence of different inhibitor concentrations. Two methodologies for read-out were used, either quantification of GFP-fluoresence on day 3 post-infection, or quantification of cell-viability using rezazurin (as described by Fields, R. D., and M. V. Lancaster (1993) Am. Biotechnol. Lab. 11:48-50) on day 4 post infection.

[2] = tested on: HIV-1 Strain A (M046I, I084V); assay: microbe, parasite or virus in culture; format: cell-based; details: clinical isolate Strain A; read-out: A EC50
Description: as §1, §2
(§3) In the following Table, Strains A, B, and C are clinical isolates that include the following protease inhibitor resistance mutations in the protease domain (background mutations are not mentioned).

[3] = tested on: HIV-1 Strain B (M046I, I050V); assay: microbe, parasite or virus in culture; format: cell-based; details: clinical isolate Strain B; read-out: B EC50
Description: as §1, §2, §3

[4] = tested on: HIV-1 Strain C (G048G/V, V082A); assay: microbe, parasite or virus in culture; format: cell-based; details: clinical isolate Strain C; read-out: C EC50
Description: as §1, §2, §3

[5] = tested on: mock-infected MT4 cells; assay: General toxicity assay on mock-infected MT4 cells with CMV-EGFP reporter (CC50); format: cell-based
[6] = tested on: HIV-1 IIIB; assay: 50% HS-Rezazurin: antiviral assay in the presence of 50% human serum, MT-4 cells, resazurin cell viability; format: cell-based
Description: For the Antiviral assay in the presence of 50% human serum MT-4 cells were infected with HIV-1 IIIB at a MOI of 0.001 to 0.01 CCID50/cell in RPMI1640 medium. Following 1 h of incubation, cells were washed and plated into a 96-well plate containing serial dilutions of compound in the presence of 10% fetal calf serum (FCS), or 50% human serum. After 4 days incubation, the EC50 in the presence of 50% human serum was determined by a cell viability assay using resazurin.
The last column lists the results for the wild-type strain IIB in the presence of 50% human serum MT-4 cells.

[7] = MT4LTR cells, read-out: TOX-MT4LTR (CC50)
[8] = mock-infected MT4 cells with CMV-EGFP reporter, read-out: TOX-MT4CMV (CC50)

Compound | pEC50 [1] | pEC50 [2] | pEC50 [3] | pEC50 [4] | CC50 [5, 7] [nM] | pEC50 [6] | CC50 [5, 8] [nM]
COc1ccc(-c2ccc(C[C@H](NC(=O)O[C@H]3CO[C@H]4OCC[C@H]43)[C@@H](O)C[C@@H](Cc3ccccc3F)C(=O)N[C@H]3c4cc(Cl)ccc4OC[C@H]3O)cc2)cn1 [Compound 72] | 8.82 | 9.10 | 9.10 | 9.30 | > 32000 | 8.24 | –
COC(=O)N[C@H](C(=O)N[C@@H](Cc1ccc(-c2ccc(N(C)C)nc2)cc1)[C@@H](O)C[C@@H](Cc1ccccc1F)C(=O)N[C@H]1c2cccc(F)c2OC[C@H]1O)C(C)(C)C [Compound 51] | 8.52 | 8.64 | 8.82 | 8.89 | > 32000 | 8.15 | –
COC(=O)N[C@H](C(=O)N[C@@H](Cc1ccc(-c2ccc(OC)nc2)cc1)[C@@H](O)C[C@@H](Cc1ccccc1F)C(=O)N[C@H]1c2cc(Cl)cc(F)c2OC[C@H]1O)C(C)(C)C [Compound 61] | 8.39 | 8.52 | 8.68 | 8.80 | > 32000 | 7.79 | –
COC(=O)NC(C(=O)NC(Cc1ccc(-c2ccc(N(C)C)nc2)cc1)C(O)CC(Cc1cccc(Cl)c1)C(=O)NC1c2cc(F)ccc2OCC1O)C(C)(C)C (stereo not drawn) [Compound 13] | 8.33 | 8.34 | 8.52 | 8.62 | – | 7.65 | > 32000
COc1cccc(C[C@H](C[C@H](O)[C@H](Cc2ccc(-c3ccc(OC)nc3)cc2)NC(=O)O[C@H]2CO[C@H]3OCC[C@H]32)C(=O)N[C@H]2c3cc(Cl)ccc3OC[C@H]2O)c1 [Compound 70] | 8.59 | 8.80 | 8.80 | 8.92 | > 32000 | 7.94 | > 32000
COC(=O)N[C@H](C(=O)N[C@@H](Cc1ccc(-c2ccc(N(C)C)nc2)cc1)[C@@H](O)C[C@@H](Cc1ccccc1F)C(=O)N[C@H]1c2cc(Cl)cc(F)c2OC[C@H]1O)C(C)(C)C [Compound 60] | 8.39 | 8.59 | 8.72 | 8.92 | 10000 | 7.60 | –
COC(=O)N[C@H](C(=O)N[C@@H](Cc1ccc(-c2cncc(N(C)C)n2)cc1)[C@@H](O)C[C@@H](Cc1ccccc1F)C(=O)N[C@H]1c2cc(Cl)ccc2OC[C@H]1O)C(C)(C)C [Compound 25] | 8.31 | 8.34 | 8.57 | 8.60 | – | 7.58 | > 32000
COc1ccc(-c2ccc(C[C@H](NC(=O)[C@@H](NC(=O)C3(C#N)CC3)C(C)(C)C)[C@@H](O)C[C@@H](Cc3ccccc3F)C(=O)N[C@H]3c4cc(Cl)ccc4OC[C@H]3O)cc2)cn1 [Compound 47] | 8.49 | 7.95 | 8.17 | 8.26 | > 32000 | 7.98 | –
COC(=O)NC(C(=O)NC(Cc1ccc(-c2cnc(C)s2)cc1)C(O)CC(Cc1cccc(Cl)c1)C(=O)NC1c2cc(Cl)ccc2OCC1O)C(C)(C)C (stereo not drawn) [Compound 6] | 8.49 | 8.41 | 8.57 | 8.82 | – | 7.82 | > 32000
COC(=O)N[C@H](C(=O)N[C@@H](Cc1ccc(-c2ccc(N(C)C)nc2)cc1)[C@@H](O)C[C@@H](Cc1cccc(OC)c1)C(=O)N[C@H]1c2cc(F)ccc2OC[C@H]1O)C(C)(C)C [Compound 26] | 8.30 | 8.38 | 8.47 | 8.49 | – | 7.81 | > 32000
COC(=O)N[C@H](C(=O)N[C@@H](Cc1ccc(-c2ccc(OC)nc2)cc1)[C@@H](O)C[C@@H](Cc1ccccc1F)C(=O)N[C@H]1c2cccc(Cl)c2OC[C@H]1O)C(C)(C)C [Compound 45] | 8.46 | 8.92 | 9.10 | 9.15 | > 32000 | 8.28 | –
COC(=O)NC(C(=O)NC(Cc1ccc(-c2cnc(N(C)C)cn2)cc1)C(O)CC(Cc1ccccc1F)C(=O)NC1c2cc(Cl)ccc2OCC1O)C(C)(C)C (stereo not drawn) [Compound 22] | 8.42 | 8.46 | 8.59 | 8.68 | – | 7.58 | > 32000
COC(=O)NC(C(=O)NC(Cc1ccc(-c2ccc(N(C)C)nc2)cc1)C(O)CC(Cc1ccccc1F)C(=O)NC1c2ccccc2OCC1O)C(C)(C)C (stereo not drawn) [Compound 7] | 8.80 | 8.82 | 9.05 | 9.10 | > 49000 | 7.98 | > 32000
COC(=O)NC(C(=O)NC(Cc1ccc(-c2ccc(N(C)C)nc2)cc1)C(O)CC(Cc1cccc(Cl)c1)C(=O)NC1c2cc(Cl)ccc2OCC1O)C(C)(C)C (stereo not drawn) [Compound 5] | 8.33 | 8.27 | 8.36 | 8.29 | – | 7.54 | > 32000
COC(=O)NC(C(=O)NC(Cc1ccc(-c2ccc(N(C)C)nc2)cc1)C(O)CC(Cc1cccc(OC)c1)C(=O)NC1c2ccccc2OCC1O)C(C)(C)C (stereo not drawn) [Compound 15] | 8.70 | 8.68 | 8.92 | 8.89 | – | 8.06 | > 32000
COC(=O)N[C@H](C(=O)N[C@@H](Cc1ccc(-c2ccnc(C(F)(F)F)c2)cc1)[C@@H](O)C[C@@H](Cc1ccccc1F)C(=O)N[C@H]1c2cc(Cl)ccc2OC[C@H]1O)C(C)(C)C [Compound 31] | 8.15 | 8.30 | 8.49 | 8.47 | – | 7.58 | > 32000
COC(=O)N[C@H](C(=O)N[C@@H](Cc1ccc(-c2csc(OC)n2)cc1)[C@@H](O)C[C@@H](Cc1ccccc1F)C(=O)N[C@H]1c2cc(Cl)ccc2OC[C@H]1O)C(C)(C)C [Compound 29] | 8.26 | 8.18 | 8.47 | 8.51 | – | 7.86 | 10000
COC(=O)N[C@H](C(=O)N[C@@H](Cc1ccc(-c2ccc(OC)nc2)cc1)[C@@H](O)C[C@@H](Cc1ccccc1Cl)C(=O)N[C@H]1c2cc(F)ccc2OC[C@H]1O)C(C)(C)C [Compound 67] | 8.54 | 8.68 | 8.92 | 9.00 | > 32000 | 8.28 | > 32000
COC(=O)N[C@H](C(=O)N[C@@H](Cc1ccc(-c2cnc(N(C)C)nc2)cc1)[C@@H](O)C[C@@H](Cc1ccccc1Cl)C(=O)N[C@H]1c2cc(F)ccc2OC[C@H]1O)C(C)(C)C [Compound 63] | 8.82 | 8.92 | 9.15 | 9.22 | > 32000 | 8.03 | –
COC(=O)N[C@H](C(=O)N[C@@H](Cc1ccc(-c2cnc(OC)nc2)cc1)[C@@H](O)C[C@@H](Cc1cccc(F)c1)C(=O)N[C@H]1c2cc(F)ccc2OC[C@H]1O)C(C)(C)C [Compound 65] | 8.04 | 8.35 | 8.44 | 8.64 | > 32000 | 7.61 | –
COC(=O)N[C@H](C(=O)N[C@@H](Cc1ccc(-c2ccc(N(C)C)nc2)cc1)[C@@H](O)C[C@@H](Cc1ccccc1F)C(=O)N[C@H]1[C@H](C)CC[C@H]1O)C(C)(C)C [Compound 87] | 8.33 | 8.10 | 8.72 | 8.27 | – | 7.84 | > 32000
COC(=O)N[C@H](C(=O)N[C@@H](Cc1ccc(-c2ccc(OC)nc2)cc1)[C@@H](O)C[C@@H](Cc1cccc(OC(F)(F)F)c1)C(=O)N[C@H]1[C@H](C)CCC[C@H]1O)C(C)(C)C [Compound 94] | 9.05 | 8.72 | 9.10 | 8.85 | > 32000 | 8.15 | –
COC(=O)N[C@H](C(=O)N[C@@H](Cc1ccc(-c2ccc(OC)nc2)cc1)[C@@H](O)C[C@@H](Cc1ccccc1F)C(=O)N[C@H]1c2cccc(F)c2OC[C@H]1O)C(C)(C)C [Compound 50] | 8.55 | 8.70 | 8.85 | 8.96 | > 32000 | 8.16 | –
COC(=O)NC(C(=O)NC(Cc1ccc(-c2ccc(OC)nc2)cc1)C(O)CC(Cc1ccccc1F)C(=O)NC1C(C)CCC1O)C(C)(C)C (stereo not drawn) [Compound 99] | 8.96 | 8.77 | 9.22 | 9.05 | > 32000 | 8.48 | –
